Molecular target: T1, SAMHD1 (Homo sapiens, UniProt Q9Y3Z3)
T1 construct: The final concentrations were 100 nM SAMHD1(115–626), 10 nM Ppx1; strep-tag; made in house
Test: SAMHD1 triphosphohydrolase continuous coupled-enzyme assay (MDCC-PBP phosphate biosensor, Ppx1)
Format: biochemical
Settings: for inhibition of SAMHD1 GTP-activated TTP hydrolysis / activation of SAMHD1 TTP hydrolysis: 0.3 mM TTP; for inhibition of SAMHD1 GTP-activated TTP hydrolysis: 0.1 mM GTP; for inhibition of SAMHD1 GTP-activated TTP hydrolysis / hydrolysis by SAMHD1 (substrate): 0.3 mM analogue triphosphate; for activation of SAMHD1 TTP hydrolysis: 0.1 mM analogue triphosphate as activator; for hydrolysis by SAMHD1 (substrate): without and with 0.1 mM GTP
Text: SAMHD1 hydrolysis, activation and inhibition by nucleotide analogues was quantified using a continuous coupled assay employing the fluorescent phosphate biosensor MDCC-PBP to measure phosphate release from combined SAMHD1 triphosphohydrolase and S. cerevisiae Ppx1 exopolyphosphatase activity, described previously. SAMHD1 and Ppx1 were expressed as strep-tagged fusion proteins and purified as described previously. Didanosine triphosphate (ddI-TP) and dideoxy ATP (ddATP) were from Trilink Biotechnologies, Stavudine triphosphate (d4T-TP) was from Jena biosciences and Chemcyte. Abacavir triphosphate and Carbovir triphosphate were chemically synthesised in house from abacavir and carbovir as described above. Experiments were performed in 20 μL reaction volumes in 384-well low-protein-binding microplates (Corning, USA). In typical experiments, solutions containing SAMHD1, Ppx1, MDCC-PBP and activator (GTP, ddI-TP or d4T-TP), or activator plus inhibitor, were incubated for 5 min in assay buffer (20 mM Tris pH 8.0, 150 mM NaCl, 5 mM MgCl2 and 2 mM TCEP) at 25 °C before the reaction was initiated by the addition of substrate (TTP, ddI-TP or d4T-TP). The final concentrations were 100 nM SAMHD1(115–626), 10 nM Ppx1, 2.5 μM BSA, 40 μM MDCC-PBP (80 μM in ABC-TP and CBV-TP assays). Activator, substrate and inhibitor were added at concentrations described below. The fluorescence intensity increase resulting from the phosphate-product binding to MDCC-PBP was recorded at 430 nm excitation and 465 nm emission over 10–30 min in a Clariostar multiwell plate reader (BMG). Steady-state rates were obtained from the fluorescence time courses by fitting a linear function with maximal slope using the Mars software (BMG). Apparent dissociation constant of ddI-TP binding (KS), catalytic constant (kcat), maximal rate (kmax) and the ddI-TP concentration at half maximal activation (Ka) were determined by nonlinear least squares fitting using a Hill-function in the software package Grafit 7.0.3 (Erithacus software, UK). All measurements were performed at least in triplicate and data are represented as mean ± SEM.

[1] = 1 mM TTP, varying ddI-TP, lower estimate
[2] = Hill equation fit, 0.2 mM GTP, mean ± SEM

T1 sequence (Q9Y3Z3 115-626): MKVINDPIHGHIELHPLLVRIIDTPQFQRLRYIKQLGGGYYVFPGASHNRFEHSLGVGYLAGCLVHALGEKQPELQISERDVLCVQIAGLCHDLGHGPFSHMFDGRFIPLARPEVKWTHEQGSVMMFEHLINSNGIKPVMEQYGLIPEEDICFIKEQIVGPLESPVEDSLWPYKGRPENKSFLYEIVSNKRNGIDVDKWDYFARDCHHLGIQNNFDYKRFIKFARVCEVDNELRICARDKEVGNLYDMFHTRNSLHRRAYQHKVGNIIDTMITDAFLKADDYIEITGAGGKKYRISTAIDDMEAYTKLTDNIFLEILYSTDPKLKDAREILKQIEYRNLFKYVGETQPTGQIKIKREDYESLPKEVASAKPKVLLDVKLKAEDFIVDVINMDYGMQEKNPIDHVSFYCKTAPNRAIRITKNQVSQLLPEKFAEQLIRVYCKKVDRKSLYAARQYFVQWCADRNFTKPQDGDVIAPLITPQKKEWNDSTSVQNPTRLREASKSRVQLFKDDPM

Compound	inhibition of SAMHD1 GTP-activated TTP hydrolysis	activation of SAMHD1 TTP hydrolysis	hydrolysis by SAMHD1 (substrate)	increase of ddI-TP hydrolysis in the presence of activating GTP (0.3 mM ddI-TP, 0.1 mM GTP vs no GTP)	Ka, ddI-TP concentration at half maximal activation of TTP hydrolysis [1]	maximal rate kmax of TTP hydrolysis activated by ddI-TP [1]	apparent binding constant KS of ddI-TP hydrolysis (Hill equation fit, 0.2 mM GTP (saturating activator), mean ± SEM)	Hill coefficient n of ddI-TP hydrolysis [2]	catalytic constant kcat of ddI-TP hydrolysis [2]	ddI-TP hydrolysis rate relative to TTP hydrolysis rate (fold slower) (in the presence of 0.1 mM GTP)
Nc1nc(NC2CC2)c2ncn([C@H]3C=C[C@@H](COP(=O)(O)OP(=O)(O)OP(=O)(O)O)C3)c2n1 [ABC-TP, abacavir-5′-triphosphate]	neither ABC-TP nor CBV-TP displayed any activation or inhibition of SAMHD1	neither ABC-TP nor CBV-TP displayed any activation or inhibition of SAMHD1	not hydrolysed by SAMHD1							
Nc1nc(=O)c2ncn([C@H]3C=C[C@@H](COP(=O)(O)OP(=O)(O)OP(=O)(O)O)C3)c2[nH]1 [CBV-TP, Carbovir 5′-triphosphate]	neither ABC-TP nor CBV-TP displayed any activation or inhibition of SAMHD1	neither ABC-TP nor CBV-TP displayed any activation or inhibition of SAMHD1	not hydrolysed by SAMHD1							
Cc1cn([C@H]2C=C[C@@H](COP(=O)(O)OP(=O)(O)OP(=O)(O)O)O2)c(=O)[nH]c1=O [d4T-TP, stavudine triphosphate]	not a SAMHD1 inhibitor or activator	not a SAMHD1 inhibitor or activator	little or no hydrolytic activity							
Nc1ncnc2c1ncn2[C@H]1CC[C@@H](CO[P@@](=O)(O)O[P@](=O)(O)OP(=O)(O)O)O1 [ddATP, dideoxy ATP]	no measurable activation or inhibition	no measurable activation or inhibition	no hydrolysis by SAMHD1							
O=c1[nH]cnc2c1ncn2[C@H]1CC[C@@H](COP(=O)(O)OP(=O)(O)OP(=O)(O)O)O1 [ddI-TP, didanosine triphosphate]	no significant inhibitory effects	activates SAMHD1 triphosphohydrolase activity, but to a much lesser degree than the natural activator, GTP	hydrolysed by SAMHD1 even in the absence of GTP	three-fold	> 300 µM	> 0.1 s⁻¹	226 ± 12 µM	1.7 ± 0.1	0.24 ± 0.04 s⁻¹	around six-fold

Reference: paper PMC5318888, “SAMHD1 enhances nucleoside-analogue efficacy against HIV-1 in myeloid cells” (Scientific Reports, 2017)
